target: T1, Human TRPC6 (Homo sapiens, UniProt Q9Y210); experiment: Evaluation of TRPC6 channel inhibitory activity (1), FLIPR Calcium 5 Assay Kit, OAG stimulation (Compound Nos. 1-1293); assay type: cell-based; conditions: Human TRPC6 stably-expressing cells, OAG 30 μM, FLIPR Calcium 5 Assay Kit; read-out: Inhibitory activity (pIC50 class) (converted)
T1 construct: expressed in transfected cells
T1 sequence (Q9Y210 1-931): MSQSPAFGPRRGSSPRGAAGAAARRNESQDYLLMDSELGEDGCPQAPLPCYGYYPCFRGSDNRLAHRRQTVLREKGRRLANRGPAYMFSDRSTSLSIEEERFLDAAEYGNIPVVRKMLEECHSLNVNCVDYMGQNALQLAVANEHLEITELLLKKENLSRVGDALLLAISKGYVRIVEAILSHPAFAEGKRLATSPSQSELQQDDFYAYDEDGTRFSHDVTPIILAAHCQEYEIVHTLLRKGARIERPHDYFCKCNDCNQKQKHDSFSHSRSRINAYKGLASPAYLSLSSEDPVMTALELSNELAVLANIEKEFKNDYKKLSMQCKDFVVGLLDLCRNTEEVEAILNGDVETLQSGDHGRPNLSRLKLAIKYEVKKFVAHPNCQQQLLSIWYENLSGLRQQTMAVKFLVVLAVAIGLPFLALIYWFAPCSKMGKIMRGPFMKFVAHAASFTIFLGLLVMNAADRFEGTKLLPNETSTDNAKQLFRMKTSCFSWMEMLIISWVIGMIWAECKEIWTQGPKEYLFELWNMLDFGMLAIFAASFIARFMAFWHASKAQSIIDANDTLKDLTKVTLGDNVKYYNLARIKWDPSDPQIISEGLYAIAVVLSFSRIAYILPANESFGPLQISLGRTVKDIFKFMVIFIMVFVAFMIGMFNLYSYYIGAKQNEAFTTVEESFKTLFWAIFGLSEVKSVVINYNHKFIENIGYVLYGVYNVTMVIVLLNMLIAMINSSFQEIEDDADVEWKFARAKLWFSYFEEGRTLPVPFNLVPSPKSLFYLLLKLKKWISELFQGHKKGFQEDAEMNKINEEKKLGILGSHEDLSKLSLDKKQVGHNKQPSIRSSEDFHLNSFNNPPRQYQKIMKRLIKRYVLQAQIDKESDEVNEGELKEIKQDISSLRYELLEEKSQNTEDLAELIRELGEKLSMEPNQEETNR
How it was run: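 TRPC6 (human) stable cells, 24 h culture; Ca5 no-wash dye + probenecid 30 min; cpd 20 min; OAG 30 μM final; ΔF (pre-cpd min to post-OAG max); 0%/100% = no cpd / no cpd + no OAG; 4PL → pIC50, binned +/++/+++.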

Structure (SMILES) | IC50
Cc1cnc(N2CCOCC2)cc1Oc1cc(C#N)ccc1-c1ncc(CN)cn1 [compound 901, 4-[5-(aminomethyl)pyrimidin-2-yl]-3-(5-methyl-2-morpholin-4-ylpyridin-4-yl)oxybenzonitrile] | > 1000 nM
Cc1cnc(N2CCOCC2)cc1Oc1cc(C#N)ccc1-c1ncc(CCN)cn1 [compound 902, 4-[5-(2-aminoethyl)pyrimidin-2-yl]-3-(5-methyl-2-morpholin-4-ylpyridin-4-yl)oxybenzonitrile] | 10 to 1000 nM
Cn1nc(C(F)(F)F)cc1Oc1cc(C#N)ccc1-c1ncc([C@H](F)CN)cn1 [compound 903, 4-[5-[(1S)-2-amino-1-fluoroethyl]pyrimidin-2-yl]-3-[2-methyl-5-(trifluoromethyl)pyrazol-3-yl]oxybenzonitrile] | < 10 nM
Cn1nc(C(F)(F)F)cc1Oc1cc(C#N)ccc1-c1ncc([C@@H](F)CN)cn1 [compound 904, 4-[5-[(1R)-2-amino-1-fluoroethyl]pyrimidin-2-yl]-3-[2-methyl-5-(trifluoromethyl)pyrazol-3-yl]oxybenzonitrile] | < 10 nM
CN(C)c1cc(Oc2cc(C#N)ccc2-c2ncc([C@H](F)CN)cn2)n(C)n1 [compound 905, 4-[5-[(1S)-2-amino-1-fluoroethyl]pyrimidin-2-yl]-3-[5-(dimethylamino)-2-methylpyrazol-3-yl]oxybenzonitrile] | < 10 nM
CN(C)c1cc(Oc2cc(C#N)ccc2-c2ncc([C@@H](F)CN)cn2)n(C)n1 [compound 906, 4-[5-[(1R)-2-amino-1-fluoroethyl]pyrimidin-2-yl]-3-[5-(dimethylamino)-2-methylpyrazol-3-yl]oxybenzonitrile] | < 10 nM
CC(C)Cn1cc(Oc2cc(C#N)ccc2-c2ncc(CCN)cn2)cn1 [compound 907, 4-[5-(2-aminoethyl)pyrimidin-2-yl]-3-[1-(2-methylpropyl)pyrazol-4-yl]oxybenzonitrile] | < 10 nM
CC(C)Cn1cc(Oc2cc(C#N)ccc2-c2ncc(CN)cn2)cn1 [compound 908, 4-[5-(aminomethyl)pyrimidin-2-yl]-3-[1-(2-methylpropyl)pyrazol-4-yl]oxybenzonitrile] | < 10 nM
CN(C)c1cc(Oc2cc(C#N)ccc2-c2ccc([C@H](F)CN)cn2)n(C)n1 [compound 909, 4-[5-[(1S)-2-amino-1-fluoroethyl]pyridin-2-yl]-3-[5-(dimethylamino)-2-methylpyrazol-3-yl]oxybenzonitrile] | < 10 nM
CN(C)c1cc(Oc2cc(C#N)ccc2-c2ccc([C@@H](F)CN)cn2)n(C)n1 [compound 910, 4-[5-[(1R)-2-amino-1-fluoroethyl]pyridin-2-yl]-3-[5-(dimethylamino)-2-methylpyrazol-3-yl]oxybenzonitrile] | < 10 nM
N#Cc1ccc(-c2ncc(CCN)cn2)c(Oc2cnn(CC(F)(F)F)c2)c1 [compound 911, 4-[5-(2-aminoethyl)pyrimidin-2-yl]-3-[1-(2,2,2-trifluoroethyl)pyrazol-4-yl]oxybenzonitrile] | 10 to 1000 nM
N#Cc1ccc(-c2ncc(CCN)cn2)c(Oc2cnn(-c3ccccn3)c2)c1 [compound 912, 4-[5-(2-aminoethyl)pyrimidin-2-yl]-3-(1-pyridin-2-ylpyrazol-4-yl)oxybenzonitrile] | < 10 nM
CCN(CC)c1cc(Oc2cc(C#N)ccc2-c2ncc([C@H](F)CN)cn2)n(C)n1 [compound 913, 4-[5-[(1S)-2-amino-1-fluoroethyl]pyrimidin-2-yl]-3-[5-(diethylamino)-2-methylpyrazol-3-yl]oxybenzonitrile] | < 10 nM
CCN(CC)c1cc(Oc2cc(C#N)ccc2-c2ncc([C@@H](F)CN)cn2)n(C)n1 [compound 914, 4-[5-[(1R)-2-amino-1-fluoroethyl]pyrimidin-2-yl]-3-[5-(diethylamino)-2-methylpyrazol-3-yl]oxybenzonitrile] | < 10 nM
CCN(CC)c1cc(Oc2cc(C#N)ccc2-c2ccc([C@H](F)CN)cn2)n(C)n1 [compound 915, 4-[5-[(1S)-2-amino-1-fluoroethyl]pyridin-2-yl]-3-[5-(diethylamino)-2-methylpyrazol-3-yl]oxybenzonitrile] | < 10 nM
CCN(CC)c1cc(Oc2cc(C#N)ccc2-c2ccc([C@@H](F)CN)cn2)n(C)n1 [compound 916, 4-[5-[(1R)-2-amino-1-fluoroethyl]pyridin-2-yl]-3-[5-(diethylamino)-2-methylpyrazol-3-yl]oxybenzonitrile] | < 10 nM
N#Cc1ccc(-c2ncc(CCN)cn2)c(Oc2cncc(N3CCOCC3)c2)c1 [compound 917, 4-[5-(2-aminoethyl)pyrimidin-2-yl]-3-(5-morpholin-4-ylpyridin-3-yl)oxybenzonitrile] | 10 to 1000 nM
N#Cc1ccc(-c2ncc(CN)cn2)c(Oc2cncc(N3CCOCC3)c2)c1 [compound 918, 4-[5-(aminomethyl)pyrimidin-2-yl]-3-(5-morpholin-4-ylpyridin-3-yl)oxybenzonitrile] | > 1000 nM
Cc1ncc(N2CCOCC2)cc1Oc1cc(C#N)ccc1-c1ncc(CCN)cn1 [compound 919, 4-[5-(2-aminoethyl)pyrimidin-2-yl]-3-(2-methyl-5-morpholin-4-ylpyridin-3-yl)oxybenzonitrile] | 10 to 1000 nM
Cc1ncc(N2CCOCC2)cc1Oc1cc(C#N)ccc1-c1ncc(CN)cn1 [compound 920, 4-[5-(aminomethyl)pyrimidin-2-yl]-3-(2-methyl-5-morpholin-4-ylpyridin-3-yl)oxybenzonitrile] | > 1000 nM
Cc1nc(N2CCOCC2)ccc1Oc1cc(C#N)ccc1-c1ncc(CCN)cn1 [compound 921, 4-[5-(2-aminoethyl)pyrimidin-2-yl]-3-(2-methyl-6-morpholin-4-ylpyridin-3-yl)oxybenzonitrile] | > 1000 nM
Cc1nc(N2CCOCC2)ccc1Oc1cc(C#N)ccc1-c1ncc(CN)cn1 [compound 922, 4-[5-(aminomethyl)pyrimidin-2-yl]-3-(2-methyl-6-morpholin-4-ylpyridin-3-yl)oxybenzonitrile] | > 1000 nM

The remaining lines, values ahead:

IC50 | Structure (SMILES)
10 to 1000 nM | Cn1nc(C2CC2)cc1Oc1cc(C#N)ccc1-c1ccc(C(=O)CN)cn1 [compound 923, 4-[5-(2-aminoacetyl)pyridin-2-yl]-3-(5-cyclopropyl-2-methylpyrazol-3-yl)oxybenzonitrile]
10 to 1000 nM | Cc1nn(CC(F)F)cc1Oc1cc(C#N)ccc1-c1ncc(CCN)cn1 [compound 924, 4-[5-(2-aminoethyl)pyrimidin-2-yl]-3-[1-(2,2-difluoroethyl)-3-methylpyrazol-4-yl]oxybenzonitrile]
> 1000 nM | Cc1c(Oc2cc(C#N)ccc2-c2ncc(CCN)cn2)cnn1CC(F)F [compound 925, 4-[5-(2-aminoethyl)pyrimidin-2-yl]-3-[1-(2,2-difluoroethyl)-5-methylpyrazol-4-yl]oxybenzonitrile]
> 1000 nM | C#CCOc1cc(Oc2cc(C#N)ccc2-c2ncc(CCN)cn2)nc(C)n1 [compound 926, 4-[5-(2-aminoethyl)pyrimidin-2-yl]-3-(2-methyl-6-prop-2-ynoxypyrimidin-4-yl)oxybenzonitrile]
10 to 1000 nM | N#Cc1ccc(-c2ncc(CCN)cn2)c(Oc2cnn(CC(F)F)c2)c1 [compound 927, 4-[5-(2-aminoethyl)pyrimidin-2-yl]-3-[1-(2,2-difluoroethyl)pyrazol-4-yl]oxybenzonitrile]
10 to 1000 nM | Cn1nc(-c2cncc(F)c2)cc1Oc1cc(C#N)ccc1-c1ncc(CN)cn1 [compound 928, 4-[5-(aminomethyl)pyrimidin-2-yl]-3-[5-(5-fluoropyridin-3-yl)-2-methylpyrazol-3-yl]oxybenzonitrile]
> 1000 nM | Cn1nc(Br)cc1Oc1cc(C#N)ccc1-c1ncc(CN)cn1 [compound 929, 4-[5-(aminomethyl)pyrimidin-2-yl]-3-(5-bromo-2-methylpyrazol-3-yl)oxybenzonitrile]
10 to 1000 nM | Cn1nc(-c2cncnc2)cc1Oc1cc(C#N)ccc1-c1ncc(CN)cn1 [compound 930, 4-[5-(aminomethyl)pyrimidin-2-yl]-3-(2-methyl-5-pyrimidin-5-ylpyrazol-3-yl)oxybenzonitrile]
< 10 nM | Cn1nc(-c2ccncn2)cc1Oc1cc(C#N)ccc1-c1ncc(CN)cn1 [compound 932, 4-[5-(aminomethyl)pyrimidin-2-yl]-3-(2-methyl-5-pyrimidin-4-ylpyrazol-3-yl)oxybenzonitrile]
> 1000 nM | Cc1nc(-c2cc(Oc3cc(C#N)ccc3-c3ncc(CN)cn3)n(C)n2)cn1C [compound 933, 4-[5-(aminomethyl)pyrimidin-2-yl]-3-[5-(1,2-dimethylimidazol-4-yl)-2-methylpyrazol-3-yl]oxybenzonitrile]

From patent US20230167073A1 (Teijin Pharma Limited, priority 2020, published 2023)
